From ChEMBL document CHEMBL1131439, “Prediction of binding affinities for TIBO inhibitors of HIV-1 reverse transcriptase using Monte Carlo simulations in a linear response method” (J Med Chem, 1998)

Biological target: Human immunodeficiency virus type 1 reverse transcriptase (Human immunodeficiency virus 1, UniProt Q72547)
Assay: Inhibition of HIV-1 reverse transcriptase.

| SMILES | IC50 [nM] |
| --- | --- |
| CC(C)=CCN1Cc2cccc3nc(O)n(c23)C[C@@H]1C | 3160 |
| CC(C)=CCN1Cc2c(C#N)ccc3[nH]c(=O)n(c23)C[C@@H]1C | 1140 |
| CC(C)=CCN1Cc2cc(Cl)cc3[nH]c(=S)n(c23)C[C@@H]1C | 34 |
| C#Cc1ccc2[nH]c(=O)n3c2c1CN(CC=C(C)C)[C@@H](C)C3 | 437 |
| COc1ccc2[nH]c(=S)n3c2c1CN(CC=C(C)C)[C@@H](C)C3 | 33.9 |
| CC(C)=CCN1Cc2cccc3[nH]c(=S)n(c23)C[C@@H]1C | 44 |
| CC(C)=CCN1Cc2c(F)ccc3[nH]c(=S)n(c23)C[C@@H]1C | 5.8 |
| CC(C)=CCN1Cc2c(C)ccc3[nH]c(=O)n(c23)C[C@@H]1C | 989 |
| CC(C)=CCN1Cc2c(C#N)ccc3[nH]c(=S)n(c23)C[C@@H]1C | 56.3 |
| C#Cc1ccc2[nH]c(=S)n3c2c1CN(CC=C(C)C)[C@@H](C)C3 | 29.5 |
| CC(C)=CCN1Cc2c(C)ccc3[nH]c(=S)n(c23)C[C@@H]1C | 13.6 |
| CC(C)=CCN1Cc2c(Cl)ccc3[nH]c(=S)n(c23)C[C@@H]1C [TIVIRAPINE] | 4.3 |
